The values below come from US20240208912A1 (Mirati Therapeutics, Inc., priority 2021, published 2024).

Assay [1] has as its system HCT116 homozygous MTAP knockout cells. As to the kind of experiment: Proliferation assay (CellTiter-Glo, 10 days) in HCT116 homozygous MTAP knockout cells. Format: cell-based. To be noted: CellTiter-Glo after 10 days of treatment, read-out: Proliferation IC50 (nM) HCT116 MTAP_KO. The gist of the method: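 MTAP-null HCT116 clone made by CRISPR/Cas9 knockout of both alleles, tested beside parental cells. Cells dosed the day after seeding, split 1:10 on day 6 into fresh medium with the same compound level, and read on day 11 by CellTiter-Glo. IC50 taken after 10 days of exposure.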
In general terms: Cellular ATP, detected with luciferase, serves as a proxy for viable cell number.

The next assay has as its target T1, PRMT5/MEP50 complex (Homo sapiens, UniProt O14744).
T1 construct: purchased Reaction Biology Corporation
Briefly: PRMT5:MEP50 HotSpot Assay (full-length histone H2A substrate, plus and minus MTA). In kind it is biochemical. Particulars: IC50 + 2 μM MTA, in the presence of 2 μM MTA. The essentials: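 Radiometric HotSpot format using recombinant full-length histone H2A as substrate, run with and without MTA. Reactions were stopped and spotted onto filter paper. Tritiated H2A was quantified by scintillation counting.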

The pIC50 is the IC50 on a negative log10 scale, so that one unit is a factor of ten.

pIC50: −log10 of the molar value. Like-named read-outs stand apart in the source and are kept apart here. A value given as a limit tells only on which side of the number the result lay.

T1 sequence (O14744 2-637 limits assumed): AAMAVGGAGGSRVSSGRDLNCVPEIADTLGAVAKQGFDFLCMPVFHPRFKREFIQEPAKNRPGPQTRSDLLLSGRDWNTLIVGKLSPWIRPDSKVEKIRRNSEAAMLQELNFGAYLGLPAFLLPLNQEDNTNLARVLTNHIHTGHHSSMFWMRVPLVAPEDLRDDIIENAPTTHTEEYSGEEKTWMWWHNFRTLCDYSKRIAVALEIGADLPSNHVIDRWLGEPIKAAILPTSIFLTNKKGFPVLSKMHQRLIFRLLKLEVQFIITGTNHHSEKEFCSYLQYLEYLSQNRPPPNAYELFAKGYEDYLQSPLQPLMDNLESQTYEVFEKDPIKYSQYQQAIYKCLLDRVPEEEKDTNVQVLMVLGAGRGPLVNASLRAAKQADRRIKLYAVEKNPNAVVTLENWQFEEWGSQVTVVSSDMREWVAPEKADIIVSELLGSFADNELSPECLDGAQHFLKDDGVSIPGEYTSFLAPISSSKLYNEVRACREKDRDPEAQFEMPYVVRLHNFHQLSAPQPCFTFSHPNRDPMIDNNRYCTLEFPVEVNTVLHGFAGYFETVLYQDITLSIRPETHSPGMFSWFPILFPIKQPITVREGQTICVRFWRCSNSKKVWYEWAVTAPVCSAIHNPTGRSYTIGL
T1 sequence (Q9BQA1 2-342 partner limits assumed): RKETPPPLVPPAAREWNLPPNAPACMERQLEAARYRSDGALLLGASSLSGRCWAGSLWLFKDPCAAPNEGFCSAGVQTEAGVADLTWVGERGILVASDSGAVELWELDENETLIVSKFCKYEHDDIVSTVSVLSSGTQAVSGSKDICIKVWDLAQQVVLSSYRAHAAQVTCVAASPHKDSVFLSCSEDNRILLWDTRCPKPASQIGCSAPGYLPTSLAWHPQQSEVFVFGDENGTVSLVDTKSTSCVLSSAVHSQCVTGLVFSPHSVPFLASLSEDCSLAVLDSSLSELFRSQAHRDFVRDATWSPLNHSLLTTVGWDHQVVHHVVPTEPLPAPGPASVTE

As for `C[C@@H]1C[C@H]1Oc1ccc(F)c(-c2c(-c3ccc4c(=O)[nH]nc(CN)c4c3)cnn2C)c1C#N` (atropisomer, axis not shown; (P)) [Example 16-65, (P)-2-(4-(4-(aminomethyl)-1-oxo-1,2-dihydrophthalazin-6-yl)-1-methyl-1H-pyrazol-5-yl)-3-fluoro-6-((1R,2R)-2-methylcyclopropoxy)benzonitrile], in assay [1], the IC50 was 187 nM. Also, the pIC50 on PRMT5/MEP50 complex was 6.69.
With `COc1cc(F)c(-c2c(-c3ccc4c(=O)[nH]nc(CN)c4c3)cnn2C)c(C#N)c1OC1CC1` (atropisomer, axis not shown; (P)) [Example 16-72, (P)-2-[4-[4-(aminomethyl)-1-oxo-2H-phthalazin-6-yl]-2-methyl-pyrazol-3-yl]-6-(cyclopropoxy)-3-fluoro-5-methoxy-benzonitrile], the IC50 in assay [1] was 461 nM. In addition, the pIC50 on PRMT5/MEP50 complex is 6.95.
Consider `CCOc1cc(-c2cnn(C)c2-c2c(F)ccc(OC3CC3)c2C#N)cc2c(CN)n[nH]c(=O)c12` (atropisomer, axis not shown; (P)) [Example 16-73, (P)-2-[4-[4-(aminomethyl)-8-ethoxy-1-oxo-2H-phthalazin-6-yl]-2-methyl-pyrazol-3-yl]-6-(cyclopropoxy)-3-fluoro-benzonitrile], for which the IC50 in assay [1] was 1070 nM. For the same molecule, the pIC50 on PRMT5/MEP50 complex was 6.04.
On to `Cn1ncc(-c2ccc3c(=O)[nH]nc(CN)c3c2)c1-c1c(C#N)cc2cccnc2c1Cl` (atropisomer, axis not shown; (P)) [Example 16-83, (P)-7-(4-(4-(aminomethyl)-1-oxo-1,2-dihydrophthalazin-6-yl)-1-methyl-1H-pyrazol-5-yl)-8-chloroquinoline-6-carbonitrile], for which, in assay [1], the IC50 was found to be 1690 nM. Besides, the pIC50 at PRMT5/MEP50 complex is 6.35.
For `Cc1cnc2c(C#N)c(-c3c(-c4ccc5c(=O)[nH]nc(CN)c5c4)cnn3C)c(F)c(C)c2c1` (atropisomer, axis not shown; (P)) [Example 16-93, (P)-7-(4-(4-(aminomethyl)-1-oxo-1,2-dihydrophthalazin-6-yl)-1-methyl-1H-pyrazol-5-yl)-6-fluoro-3,5-dimethylquinoline-8-carbonitrile] the same measures were 3290 nM and 6.09.
As to `Cc1c(F)c(-c2c(-c3cc(Cl)c4c(=O)[nH]nc(CN)c4c3)cnn2C)c(C#N)c2ncc(Cl)cc12` (atropisomer, axis not shown; (P)) [Example 16-97, (P)-7-(4-(4-(aminomethyl)-8-chloro-1-oxo-1,2-dihydrophthalazin-6-yl)-1-methyl-1H-pyrazol-5-yl)-3-chloro-6-fluoro-5-methylquinoline-8-carbonitrile], the IC50 in assay [1] (Homo sapiens, HCT-116, 240 h) came to 1860 nM. Besides, the pIC50 on PRMT5/MEP50 complex was under 6.00.
As to `Cn1ncc(-c2cc(Cl)c3c(=O)[nH]nc(CN)c3c2)c1-c1c(F)cc2ccccc2c1C#N` (single isomer, unassigned) [Example 16-11, (P)-2-(4-(4-(aminomethyl)-8-chloro-1-oxo-1,2-dihydrophthalazin-6-yl)-1-methyl-1H-pyrazol-5-yl)-3-fluoro-1-naphthonitrile], the IC50 in assay [1] amounted to 5 nM. On PRMT5/MEP50 complex, the pIC50 is 6.99.
As to `Cn1ncc(-c2cc(Cl)c3c(=O)[nH]nc(CN)c3c2)c1-c1c(F)cc2ccccc2c1C#N` (single isomer, unassigned) [Example 16-12, (M)-(4-(4-(aminomethyl)-8-chloro-1-oxo-1,2-dihydrophthalazin-6-yl)-1-methyl-1H-pyrazol-5-yl)-3-fluoro-1-naphthonitrile], the IC50 in assay [1] came out at 12 nM. Moreover, the pIC50 at PRMT5/MEP50 complex was 7.58.
Take `Cc1cc(OC2CC2)c(C#N)c(-c2c(-c3ccc4c(=O)[nH]nc(CN)c4c3)cnn2C)c1F` (single isomer, unassigned) [Example 16-19, (P)-2-[4-[4-(aminomethyl)-1-oxo-2H-phthalazin-6-yl]-2-methyl-pyrazol-3-yl]-6-(cyclopropoxy)-3-fluoro-4-methyl-benzonitrile]: in assay [1], the IC50 is 1070 nM. For the same molecule, the pIC50 on PRMT5/MEP50 complex was 6.76.
